Assays:
Assay type in all cases: biochemical
[1] = biological target: EGFR (Homo sapiens, UniProt P00533); assay: Inhibition of a panel of kinases, in vitro HotSpot kinase assay: EGFR
Experimental: The degree of inhibition of a panel of kinases is determined using the in vitro HotSpot kinase assay (purified enzymes, ^33P-ATP, an appropriate substrate and 1 uM ATP).

[2] = biological target: Btk (Homo sapiens, UniProt Q06187); assay: Btk kinase activity, TR-FRET assay; details: read-out: Btk (IC50)
Experimental: (§1) Btk kinase activity is determined using a time-resolved fluorescence resonance energy transfer (TR-FRET) methodology. Measurements are performed in a reaction volume of 50 μL using 96-well assay plates. Kinase enzyme, inhibitor, ATP (at the Km for the kinase), and 1 […] (Biotin-AVLESEEELYSSARQ-NH2) are incubated in a reaction buffer composed of 20 mM Tris, 50 mM NaCl, MgCl2 (5-25 mM depending on the kinase), MnCl2 (0-10 mM), 1 mM DTT, 0.1 mM EDTA, 0.01% bovine serum albumin, 0.005% Tween-20, and 10% DMSO at pH 7.4 for one hour. The reaction is quenched by the addition of 1.2 equivalents of EDTA (relative to divalent cation) in 25 μL of 1× Lance buffer (Perkin-Elmer). Streptavidin-APC (Perkin-Elmer) and Eu-labeled p-Tyr100 antibody (Perkin-Elmer) in 1× Lance buffer are added in a 25 μL volume to give final concentrations of 100 nM and 2.5 nM, respectively, and the mixture is allowed to incubate for one hour. The TR-FRET signal is measured on a multimode plate reader with an excitation wavelength (λEx) of 330 nm and detection wavelengths (λEm) of 615 and 665 nm. Activity is determined by the ratio of the fluorescence at 665 nm to that at 615 nm. For each compound, enzyme activity is measured at various concentrations of compound. Negative control reactions are performed in the absence of inhibitor in replicates of six, and two no-enzyme controls are used to determine baseline fluorescence levels. Inhibition constants, Ki(app), ware obtained using the program BatchKi (Kuzmic et al. (2000), Anal. Biochem. 286:45-50). IC50s are obtained according to the equation: IC50={Ki(app)/(1+[ATP]/Km^ATP)}+[E]total/2;
(§2) For all kinases, [ATP]=Km^ATP, [Btk]total=0.5 nM and [Lck]total=6 nM.

[3] = biological target: Lck (Homo sapiens, UniProt P06239); assay: Lck kinase activity, TR-FRET assay; details: read-out: LCK (IC50)
Experimental: as §1, §2

EGFR, sequence (P00533 25-1210): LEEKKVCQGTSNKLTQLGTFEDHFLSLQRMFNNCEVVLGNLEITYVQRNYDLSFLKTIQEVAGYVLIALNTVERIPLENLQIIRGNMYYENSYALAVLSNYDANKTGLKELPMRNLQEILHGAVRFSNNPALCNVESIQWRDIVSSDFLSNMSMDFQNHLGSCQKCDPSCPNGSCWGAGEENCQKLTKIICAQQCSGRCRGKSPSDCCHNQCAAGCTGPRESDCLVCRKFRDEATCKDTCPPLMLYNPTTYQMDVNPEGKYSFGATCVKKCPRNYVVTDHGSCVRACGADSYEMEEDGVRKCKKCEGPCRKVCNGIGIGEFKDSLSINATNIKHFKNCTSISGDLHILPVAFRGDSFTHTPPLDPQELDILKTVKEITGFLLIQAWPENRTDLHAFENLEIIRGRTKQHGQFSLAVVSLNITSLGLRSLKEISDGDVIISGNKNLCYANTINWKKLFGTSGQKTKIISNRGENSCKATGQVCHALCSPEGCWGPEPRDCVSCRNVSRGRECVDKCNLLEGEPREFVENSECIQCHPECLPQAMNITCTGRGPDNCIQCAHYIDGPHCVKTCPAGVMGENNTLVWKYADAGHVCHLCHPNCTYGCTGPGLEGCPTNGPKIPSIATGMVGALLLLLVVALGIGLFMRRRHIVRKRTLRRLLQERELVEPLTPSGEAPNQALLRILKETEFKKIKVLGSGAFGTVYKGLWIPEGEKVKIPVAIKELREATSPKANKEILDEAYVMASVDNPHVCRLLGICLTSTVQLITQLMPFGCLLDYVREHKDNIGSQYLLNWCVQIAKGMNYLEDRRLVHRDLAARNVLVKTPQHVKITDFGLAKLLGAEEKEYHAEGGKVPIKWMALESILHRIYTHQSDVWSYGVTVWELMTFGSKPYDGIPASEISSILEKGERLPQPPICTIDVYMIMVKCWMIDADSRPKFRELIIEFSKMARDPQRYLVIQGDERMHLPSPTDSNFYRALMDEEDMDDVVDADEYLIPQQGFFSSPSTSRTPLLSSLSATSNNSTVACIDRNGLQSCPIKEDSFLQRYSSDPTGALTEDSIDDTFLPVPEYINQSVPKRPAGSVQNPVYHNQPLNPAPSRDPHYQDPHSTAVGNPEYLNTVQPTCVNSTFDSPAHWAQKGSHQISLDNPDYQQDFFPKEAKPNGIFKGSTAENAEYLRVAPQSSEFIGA
Lck, sequence (P06239 whole entry, species assumed): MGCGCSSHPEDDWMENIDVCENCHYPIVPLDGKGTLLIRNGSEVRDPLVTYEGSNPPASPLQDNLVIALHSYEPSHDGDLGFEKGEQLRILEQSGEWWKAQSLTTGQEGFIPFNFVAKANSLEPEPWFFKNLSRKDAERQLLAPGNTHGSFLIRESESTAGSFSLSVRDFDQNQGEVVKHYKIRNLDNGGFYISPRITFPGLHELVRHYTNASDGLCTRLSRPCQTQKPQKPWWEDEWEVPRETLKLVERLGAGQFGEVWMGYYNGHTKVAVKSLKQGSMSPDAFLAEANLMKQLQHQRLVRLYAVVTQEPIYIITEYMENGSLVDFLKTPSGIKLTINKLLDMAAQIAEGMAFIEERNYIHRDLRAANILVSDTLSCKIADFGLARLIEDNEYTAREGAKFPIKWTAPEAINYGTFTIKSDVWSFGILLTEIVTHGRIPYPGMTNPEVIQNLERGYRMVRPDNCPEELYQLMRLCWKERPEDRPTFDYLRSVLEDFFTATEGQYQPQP
Btk, sequence (Q06187 whole entry): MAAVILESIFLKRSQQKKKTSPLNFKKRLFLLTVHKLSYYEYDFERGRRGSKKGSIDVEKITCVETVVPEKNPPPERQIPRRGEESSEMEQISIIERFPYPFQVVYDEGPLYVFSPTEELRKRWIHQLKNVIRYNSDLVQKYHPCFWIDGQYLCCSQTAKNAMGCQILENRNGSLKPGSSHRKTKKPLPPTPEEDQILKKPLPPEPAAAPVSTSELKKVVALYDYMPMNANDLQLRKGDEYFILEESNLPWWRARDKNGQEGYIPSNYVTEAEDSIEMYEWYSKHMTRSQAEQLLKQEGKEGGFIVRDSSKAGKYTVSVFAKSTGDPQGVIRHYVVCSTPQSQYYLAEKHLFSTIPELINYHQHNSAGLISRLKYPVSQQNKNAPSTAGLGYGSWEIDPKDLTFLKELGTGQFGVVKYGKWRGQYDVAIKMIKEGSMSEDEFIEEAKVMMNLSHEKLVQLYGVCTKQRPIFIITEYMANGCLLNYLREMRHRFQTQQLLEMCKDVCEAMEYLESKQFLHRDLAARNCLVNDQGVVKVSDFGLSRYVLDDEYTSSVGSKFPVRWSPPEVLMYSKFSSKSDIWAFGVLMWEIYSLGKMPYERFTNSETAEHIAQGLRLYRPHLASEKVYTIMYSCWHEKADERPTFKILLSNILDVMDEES

Row | Compound | IC50 [1] [nM] | IC50 [2] [nM] | IC50 [3] [nM]
1 | CCNC(=O)N1CC[C@@H](Nc2n[nH]c3nccc(Oc4ccc(C(=O)Nc5ncc(C)s5)cc4)c23)C1 [compound 189] | > 10000 | < 100 | 1000 to 10000
2 | Cc1ccnc(NC(=O)c2ccc(Oc3ccnc4[nH]nc(N[C@@H]5CCCN(C(=O)C6(C)CCOCC6)C5)c34)cc2)c1 [compound 87, 4-[(3-{[(3R)-1-(4-methyloxane-4-carbonyl)piperidin-3-yl]amino}-1H-pyrazolo[3,4-b]pyridin-4-yl)oxy]-N-(4-methylpyridin-2-yl)benzamide] | > 10000 | < 100 | 1000 to 10000
3 | Cc1ccnc(NC(=O)c2ccc(Oc3ccnc4[nH]nc(N[C@@H]5CCCN(C(=O)C6(C)CCOC6)C5)c34)cc2)c1 (stereo partly drawn) [compound 89, 4-[(3-{[(3R)-1-(3-methyloxolane-3-carbonyl)piperidin-3-yl]amino}-1H-pyrazolo[3,4-b]pyridin-4-yl)oxy]-N-(4-methylpyridin-2-yl)benzamide] | > 10000 | < 100 | 1000 to 10000
4 | CN(C)C/C=C/C(=O)N1CC[C@@H](Nc2n[nH]c3nccc(Oc4ccc(-c5ncco5)c(Cl)c4)c23)C1 [compound 16, (2E)-1-[(3R)-3-({4-[3-chloro-4-(1,3-oxazol-2-yl)phenoxy]-1H-pyrazolo[3,4-b]pyridin-3-yl}amino)pyrrolidin-1-yl]-4-(dimethylamino)but-2-en-1-one] | 1000 to 10000 | 100 to 1000 | 1000 to 10000
5 | CN(C)C/C=C/C(=O)N1CC[C@@H](Nc2n[nH]c3nccc(Oc4cccc(Oc5ccccc5)c4)c23)C1 [compound 12, (2E)-4-(dimethylamino)-1-[(3R)-3-{[4-(3-phenoxyphenoxy)-1H-pyrazolo[3,4-b]pyridin-3-yl]amino}pyrrolidin-1-yl]but-2-en-1-one] | 1000 to 10000 | < 100 | 1000 to 10000
6 | CN(C/C=C/C(=O)N1CC[C@@H](Nc2n[nH]c3nccc(Oc4cccc(Oc5ccccc5)c4)c23)C1)C1CC1 [compound 11, (2E)-4-[cyclopropyl(methyl)amino]-1-[(3R)-3-{[4-(3-phenoxyphenoxy)-1H-pyrazolo[3,4-b]pyridin-3-yl]amino}pyrrolidin-1-yl]but-2-en-1-one] | 1000 to 10000 | < 100 | 1000 to 10000
7 | Cc1ccnc(NC(=O)c2ccc(Oc3ccnc4[nH]nc(N[C@@H]5CCCN(C(=O)N6CCOCC6)C5)c34)cc2)c1 [compound 91, N-(4-methylpyridin-2-yl)-4-[(3-{[(3R)-1-(morpholine-4-carbonyl)piperidin-3-yl]amino}-1H-pyrazolo[3,4-b]pyridin-4-yl)oxy]benzamide] | > 10000 | < 100 | 1000 to 10000
8 | CN(C/C=C/C(=O)N1CC[C@@H](Nc2n[nH]c3nccc(Oc4ccc(C(=O)Nc5cc(C#N)ccn5)cc4)c23)C1)C1CC1 [compound 62] | 1000 to 10000 | < 100 | 1000 to 10000
9 | Cc1cccc2nc(-c3ccc(Oc4ccnc5[nH]nc(N[C@@H]6CCCN(C(=O)C7CCN(C)CC7)C6)c45)cc3)oc12 [compound 184] | > 10000 | 1000 to 10000 | > 10000
10 | CCNC(=O)N1CCC[C@@H](Nc2n[nH]c3nccc(Oc4ccc(-c5nc6cccc(C)c6o5)cc4)c23)C1 [compound 182] | > 10000 | 100 to 1000 | > 10000
11 | CN(C/C=C/C(=O)N1CC[C@@H](Nc2n[nH]c3nccc(Oc4ccc(C(=O)Nc5cc(C(F)(F)F)ccn5)cc4)c23)C1)C1CC1 [compound 33, 4-[(3-{[(3R)-1-[(2E)-4-[cyclopropyl(methyl)amino]but-2-enoyl]pyrrolidin-3-yl]amino}-1H-pyrazolo[3,4-b]pyridin-4-yl)oxy]-N-[4-(trifluoromethyl)pyridin-2-yl]benzamide] | 1000 to 10000 | < 100 | 100 to 1000
12 | CCCc1ccnc(NC(=O)c2ccc(Oc3ccnc4[nH]nc(N[C@@H]5CCN(C(=O)/C=C/CN(C)C6CC6)C5)c34)cc2)c1 [compound 56] | 1000 to 10000 | < 100 | 100 to 1000

Now from value to compound:

Row | IC50 [1] [nM] | IC50 [2] [nM] | IC50 [3] [nM] | Compound
13 | 1000 to 10000 | 100 to 1000 | 100 to 1000 | CCNC(=O)N1CCCC(c2n[nH]c3nccc(Oc4ccc(C(=O)Nc5cc(C(F)(F)F)ccn5)cc4)c23)C1 (stereo not drawn) [compound 186]
14 | 1000 to 10000 | < 100 | 100 to 1000 | CCC(=O)N1CC[C@@H](Oc2n[nH]c3nccc(Nc4ccc(C(=O)Nc5cc(C(F)(F)F)ccn5)cc4)c23)C1 [compound 71]
15 | < 100 | < 100 | 100 to 1000 | CCNC(=O)N1CCC[C@@H](Nc2n[nH]c3nccc(Oc4ccc(C(=O)Nc5cc(C#N)ccn5)cc4)c23)C1 [compound 79, (3R)-3-[(4-{4-[(4-cyanopyridin-2-yl)carbamoyl]phenoxy}-1H-pyrazolo[3,4-b]pyridin-3-yl)amino]-N-ethylpiperidine-1-carboxamide]
16 | < 100 | < 100 | 100 to 1000 | CN(C)C/C=C/C(=O)N1CC[C@@H](Nc2n[nH]c3ncnc(Oc4ccc(Oc5ccccc5)cc4)c23)C1 [compound 39]
17 | 1000 to 10000 | 100 to 1000 | 1000 to 10000 | CCNC(=O)N1CCCC(c2n[nH]c3nccc(Oc4ccc(C(=O)Nc5ncc(C)s5)cc4)c23)C1 (stereo not drawn) [compound 195, N-ethyl-3-(4-{4-[(5-methyl-1,3-thiazol-2-yl)carbamoyl]phenoxy}-1H-pyrazolo[3,4-b]pyridin-3-yl)piperidine-1-carboxamide]
18 | 100 to 1000 | 1000 to 10000 | 100 to 1000 | N#Cc1cc(Nc2n[nH]c3nccc(Oc4ccc(Oc5ccccc5)cc4)c23)ccn1 [compound 30, 4-{[4-(4-phenoxyphenoxy)-1H-pyrazolo[3,4-b]pyridin-3-yl]amino}pyridine-2-carbonitrile]
19 | < 100 | < 100 | 100 to 1000 | N#C/C(=C\c1ncc[nH]1)C(=O)N1CC[C@@H](Nc2n[nH]c3nccc(Oc4ccc(Oc5ccccc5)cc4)c23)C1 [compound 28, (2E)-3-(1H-imidazol-2-yl)-2-[(E)-(3R)-3-{[4-(4-phenoxyphenoxy)-1H-pyrazolo[3,4-b]pyridin-3-yl]amino}pyrrolidine-1-carbonyl]prop-2-enentrile]
20 | 100 to 1000 | < 100 | 100 to 1000 | N#C/C(=C\C1CCC1)C(=O)N1CC[C@@H](Nc2n[nH]c3nccc(Oc4ccc(Oc5ccccc5)cc4)c23)C1 [compound 27, (2E)-3-cyclobutyl-2-[(E)-(3R)-3-{[4-(4-phenoxyphenoxy)-1H-pyrazolo[3,4-b]pyridin-3-yl]amino}pyrrolidine-1-carbonyl]prop-2-enenitrile]
21 | 1000 to 10000 | 100 to 1000 | > 10000 | Cc1cnc(NC(=O)c2ccc(Oc3ccnc4[nH]nc(C5CCCN(C(=O)C6CC6)C5)c34)cc2)s1 (stereo not drawn) [compound 193]
22 | 100 to 1000 | < 100 | < 100 | CN(C)C/C=C/C(=O)N1CCCC(c2n[nH]c3nccc(Oc4ccc(Oc5ccccc5)cc4)c23)C1 (stereo not drawn) [compound 32, (2E)-4-(dimethylamino)-1-{3-[4-(4-phenoxyphenoxy)-1H-pyrazolo[3,4-b]pyridin-3-yl]piperidin-1-yl}but-2-en-1-one]
23 | < 100 | < 100 | 100 to 1000 | CN(C/C=C/C(=O)N1CC[C@@H](Nc2n[nH]c3nccc(Oc4ccc(OCc5cnn[nH]5)cc4)c23)C1)C1CC1 [compound 40]
24 | 100 to 1000 | < 100 | < 100 | CN(C/C=C/C(=O)N1CC[C@@H](Nc2n[nH]c3nccc(Nc4ccc(Oc5ccccc5)cc4)c23)C1)C1CC1 [compound 23, (2E)-4-[cyclopropyl(methyl)amino]-1-[(3R)-3-({4-[(4-phenoxyphenyl)amino]-1H-pyrazolo[3,4-b]pyridin-3-yl}amino)pyrrolidin-1-yl]but-2-en-1-one]
25 | 100 to 1000 | < 100 | 100 to 1000 | CN(C)C/C=C/C(=O)N1CCC[C@@H](Nc2n[nH]c3nccc(Oc4cccc(Oc5ccccc5)c4)c23)C1 [compound 13, (2E)-4-(dimethylamino)-1-[(3R)-3-{[4-(3-phenoxyphenoxy)-1H-pyrazolo[3,4-b]pyridin-3-yl]amino}piperidin-1-yl]but-2-en-1-one]
26 | < 100 | < 100 | 100 to 1000 | COCCC(=O)N1CCC[C@@H](Nc2n[nH]c3nccc(Oc4ccc(C(=O)Nc5cc(C#N)ccn5)cc4)c23)C1 [compound 80, N-(4-cyanopyridin-2-yl)-4-[(3-{[(3R)-1-(3-methoxypropanoyl)piperidin-3-yl]amino}-1H-pyrazolo[3,4-b]pyridin-4-yl)oxy]benzamide]
27 | < 100 | 100 to 1000 | 100 to 1000 | CCC(=O)N1CCC[C@@H](Nc2n[nH]c3ncnc(Oc4ccc(Oc5ccccc5)cc4)c23)C1 [compound 51]

Source: patent publication US9580416B2, “Inhibitors of Bruton's tyrosine kinase” (PHARMACYCLICS LLC, priority 2014, dated 2017)
